In PubChem BioAssay (NCI):
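Test compounds were applied to cells in 96-well plates for 48 hours at 5 doses. GI50 = concentration required for 50% inhibition of growth. Definition used: TGI = concentration required for complete inhibition of growth.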

Columns and labels:
Experiment in all cases: growth of human tumour cells (NCI), 48 h
786-0 renal = system: 786-0 renal
K-562 leukemia = system: K-562 leukemia
MCF7 breast = system: MCF7 breast
MDA-N = system: MDA-N
UACC-257 melanoma = system: UACC-257 melanoma
OVCAR-3 ovarian = system: OVCAR-3 ovarian
HOP-62 NSCLC = system: HOP-62 NSCLC
MALME-3M melanoma = system: MALME-3M melanoma
RPMI-8226 leukemia = system: RPMI-8226 leukemia
EKVX NSCLC = system: EKVX NSCLC
UO-31 renal = system: UO-31 renal
SNB-75 CNS = system: SNB-75 CNS
SK-MEL-28 melanoma = system: SK-MEL-28 melanoma
CAKI-1 renal = system: CAKI-1 renal
HCC-2998 colon = system: HCC-2998 colon
SF-295 CNS = system: SF-295 CNS
NCI/ADR-RES ovarian = system: NCI/ADR-RES ovarian
SF-539 CNS = system: SF-539 CNS
SF-268 CNS = system: SF-268 CNS
IGROV1 ovarian = system: IGROV1 ovarian
SK-MEL-2 melanoma = system: SK-MEL-2 melanoma
A549 NSCLC = system: A549 NSCLC
M14 melanoma = system: M14 melanoma
TK-10 renal = system: TK-10 renal
SK-OV-3 ovarian = system: SK-OV-3 ovarian
SW-620 colon = system: SW-620 colon
PC-3 prostate = system: PC-3 prostate
OVCAR-8 ovarian = system: OVCAR-8 ovarian
NCI-H226 lung = system: NCI-H226 lung
SK-MEL-5 melanoma = system: SK-MEL-5 melanoma
T-47D breast = system: T-47D breast
ACHN renal = system: ACHN renal
OVCAR-5 ovarian = system: OVCAR-5 ovarian
RXF 393 renal = system: RXF 393 renal
HL-60(TB) leukemia = system: HL-60(TB) leukemia
NCI-H23 lung = system: NCI-H23 lung
LOX IMVI melanoma = system: LOX IMVI melanoma
NCI-H522 lung = system: NCI-H522 lung
HS 578T breast = system: HS 578T breast
MDA-MB-435 = system: MDA-MB-435
OVCAR-4 ovarian = system: OVCAR-4 ovarian
DU-145 prostate = system: DU-145 prostate
MOLT-4 leukemia = system: MOLT-4 leukemia
UACC-62 melanoma = system: UACC-62 melanoma
U251 CNS = system: U251 CNS
A498 renal = system: A498 renal
HOP-92 NSCLC = system: HOP-92 NSCLC
HCT-15 colon = system: HCT-15 colon
HT29 colon = system: HT29 colon
CCRF-CEM leukemia = system: CCRF-CEM leukemia
SNB-19 CNS = system: SNB-19 CNS
MDA-MB-231 breast = system: MDA-MB-231 breast
NCI-H460 lung = system: NCI-H460 lung
KM12 colon = system: KM12 colon
COLO 205 colon = system: COLO 205 colon
SR leukemia = system: SR leukemia
SN12C renal = system: SN12C renal
HCT-116 colon = system: HCT-116 colon

`CCP(=O)(OC)C1=CCN(C(=O)OCC[Si](C)(C)C)CC1` (stereo unspecified) showed a TGI (786-0 renal) of over 100000 nM, a TGI (K-562 leukemia) of over 100000 nM and a TGI (MCF7 breast) of over 100000 nM. It also gave a TGI (MDA-N) of over 100000 nM, a TGI (UACC-257 melanoma) of over 100000 nM and a TGI (OVCAR-3 ovarian) of over 100000 nM. For the same compound, the TGI (HOP-62 NSCLC) was over 100000 nM, the TGI (MALME-3M melanoma) was over 100000 nM and the TGI (RPMI-8226 leukemia) was over 100000 nM. The TGI (EKVX NSCLC) was over 100000 nM, the TGI (UO-31 renal) was over 100000 nM and the TGI (SNB-75 CNS) was over 100000 nM. The TGI (SK-MEL-28 melanoma) was over 100000 nM, the TGI (CAKI-1 renal) was over 100000 nM and the TGI (HCC-2998 colon) was over 100000 nM. For the same compound, the TGI (SF-295 CNS) was over 100000 nM, the TGI (NCI/ADR-RES ovarian) was over 100000 nM and the TGI (SF-539 CNS) was over 100000 nM. It also gave a TGI (SF-268 CNS) of over 100000 nM, a TGI (IGROV1 ovarian) of over 100000 nM and a TGI (SK-MEL-2 melanoma) of over 100000 nM. It also gave a TGI (A549 NSCLC) of over 100000 nM, a TGI (M14 melanoma) of over 100000 nM and a TGI (TK-10 renal) of over 100000 nM. It also gave a TGI (SK-OV-3 ovarian) of over 100000 nM, a TGI (SW-620 colon) of over 100000 nM and a TGI (PC-3 prostate) of over 100000 nM. It also gave a TGI (OVCAR-8 ovarian) of over 100000 nM, a TGI (NCI-H226 lung) of over 100000 nM and a TGI (SK-MEL-5 melanoma) of over 100000 nM. For the same compound, the TGI (T-47D breast) was over 100000 nM, the TGI (ACHN renal) was over 100000 nM and the TGI (OVCAR-5 ovarian) was over 100000 nM. For the same compound, the TGI (RXF 393 renal) was over 100000 nM, the TGI (HL-60(TB) leukemia) was over 100000 nM and the TGI (NCI-H23 lung) was over 100000 nM. The TGI (LOX IMVI melanoma) was over 100000 nM, the TGI (NCI-H522 lung) was over 100000 nM and the TGI (HS 578T breast) was over 100000 nM. It also gave a TGI (MDA-MB-435) of over 100000 nM, a TGI (OVCAR-4 ovarian) of over 100000 nM and a TGI (DU-145 prostate) of over 100000 nM. It also gave a TGI (MOLT-4 leukemia) of over 100000 nM, a TGI (UACC-62 melanoma) of over 100000 nM and a TGI (U251 CNS) of over 100000 nM. For the same compound, the TGI (A498 renal) was over 100000 nM, the TGI (HOP-92 NSCLC) was over 100000 nM and the TGI (HCT-15 colon) was over 100000 nM. It also gave a TGI (HT29 colon) of over 100000 nM, a TGI (CCRF-CEM leukemia) of over 100000 nM and a TGI (SNB-19 CNS) of over 100000 nM. For the same compound, the TGI (MDA-MB-231 breast) was over 100000 nM, the TGI (NCI-H460 lung) was over 100000 nM and the TGI (KM12 colon) was over 100000 nM. The TGI (COLO 205 colon) was over 100000 nM.

For `COc1cc2cc(C(=O)N3C[C@H](CCl)c4c3cc(N)c3ccccc43)[nH]c2c(OC)c1OC`, the GI50 (K-562 leukemia) was 5 nM, the TGI (K-562 leukemia) was over 50000 nM and the GI50 (MCF7 breast) was 5 nM. The TGI (MCF7 breast) was 13000 nM, the GI50 (MDA-N) was under 1 nM and the TGI (MDA-N) was 9030 nM. It also gave a GI50 (OVCAR-3 ovarian) of 5 nM, a TGI (OVCAR-3 ovarian) of 936 nM and a GI50 (SR leukemia) of 5 nM. For the same compound, the TGI (SR leukemia) was over 50000 nM, the GI50 (HOP-62 NSCLC) was 5 nM and the TGI (HOP-62 NSCLC) was 112 nM. For the same compound, the TGI (MALME-3M melanoma) was 10.3 nM, the GI50 (SN12C renal) was 6.98 nM and the TGI (SN12C renal) was 58.2 nM. For the same compound, the GI50 (RPMI-8226 leukemia) was 5 nM, the TGI (RPMI-8226 leukemia) was over 50000 nM and the TGI (EKVX NSCLC) was 46.2 nM. It also gave a GI50 (SNB-75 CNS) of 12.3 nM, a TGI (SNB-75 CNS) of 45.8 nM and a TGI (CAKI-1 renal) of under 5 nM. It also gave a GI50 (HCC-2998 colon) of under 5 nM, a TGI (HCC-2998 colon) of under 5 nM and a GI50 (SF-295 CNS) of 5 nM. For the same compound, the TGI (SF-295 CNS) was over 50000 nM, the TGI (NCI/ADR-RES ovarian) was 7690 nM and the TGI (SF-539 CNS) was 3300 nM. It also gave a GI50 (SF-268 CNS) of 5 nM, a TGI (SF-268 CNS) of 1740 nM and a GI50 (IGROV1 ovarian) of 5 nM. It also gave a TGI (IGROV1 ovarian) of 393 nM, a TGI (A549 NSCLC) of over 50000 nM and a GI50 (M14 melanoma) of 5 nM. The TGI (M14 melanoma) was 13.7 nM, the TGI (TK-10 renal) was 10300 nM and the GI50 (SK-OV-3 ovarian) was 39.8 nM. The TGI (SK-OV-3 ovarian) was 819 nM, the GI50 (SW-620 colon) was 5 nM and the TGI (SW-620 colon) was over 50000 nM. It also gave a TGI (OVCAR-8 ovarian) of over 50000 nM, a TGI (SK-MEL-5 melanoma) of under 5 nM and a TGI (T-47D breast) of under 5 nM. For the same compound, the GI50 (HCT-116 colon) was 5 nM, the TGI (HCT-116 colon) was 600 nM and the TGI (ACHN renal) was under 5 nM. The GI50 (OVCAR-5 ovarian) was 5 nM, the TGI (OVCAR-5 ovarian) was 552 nM and the GI50 (HL-60(TB) leukemia) was 17.1 nM. It also gave a TGI (HL-60(TB) leukemia) of 164 nM, a GI50 (LOX IMVI melanoma) of 5 nM and a TGI (LOX IMVI melanoma) of 58.1 nM. For the same compound, the GI50 (NCI-H522 lung) was under 5 nM, the TGI (NCI-H522 lung) was under 5 nM and the TGI (MDA-MB-435) was 137 nM. The GI50 (DU-145 prostate) was under 5 nM, the TGI (DU-145 prostate) was under 5 nM and the TGI (MOLT-4 leukemia) was 246 nM. The GI50 (U251 CNS) was 5 nM, the TGI (U251 CNS) was over 50000 nM and the TGI (A498 renal) was 31.8 nM. It also gave a TGI (HOP-92 NSCLC) of over 50000 nM, a TGI (HCT-15 colon) of over 50000 nM and a GI50 (HT29 colon) of 5 nM. The TGI (HT29 colon) was 615 nM, the GI50 (CCRF-CEM leukemia) was 5 nM and the TGI (CCRF-CEM leukemia) was over 50000 nM. It also gave a GI50 (SNB-19 CNS) of 25.2 nM, a TGI (SNB-19 CNS) of 1240 nM and a GI50 (MDA-MB-231 breast) of 5 nM. For the same compound, the TGI (MDA-MB-231 breast) was 25.4 nM, the GI50 (NCI-H460 lung) was 5 nM and the TGI (NCI-H460 lung) was 6.7 nM. It also gave a GI50 (KM12 colon) of 11.5 nM, a TGI (KM12 colon) of 92.2 nM and a GI50 (COLO 205 colon) of under 5 nM. The TGI (COLO 205 colon) was under 5 nM.
